The values below are quoted from earlier work in US10638990B2, “Sunscreen compositions with improved water resistance of UVA sunscreen active agents” (Edgewell Personal Care Brands, LLC, priority 2015, dated 2020).

The conditions of this data set: calculated partition coefficient between octanol and water.
Turning to `CCOCCOC(=O)/C=C/c1ccc(OC)cc1` [Cinoxate, Ethoxyethyl methoxy cinnamate], the “Log P @25° C.” value is listed as 2.55.

For `CC1CCC(C(C)C)C(OC(=O)c2ccccc2N)C1` (stereo not drawn) [Menthyl anthranilate, Menthyl-O-aminobenzoate], the “Log P @25° C.” value is on record as 5.05.

In the case of `CCOC(=O)c1ccc(N(CC(C)O)CC(C)O)cc1` (stereo not drawn) [Ethyl dihydroxypropyl PABA, Ethyl-4-bis(2-hydroxypropyl-aminobenzoate)], the “Log P @25° C.” value was 2.84.
